Measurements: patent publication US20050004134A1, “Thiazole derivative and pharmaceutical use thereof” (priority 2001, published 2005)

Structure (SMILES) | melting point [°C]
CC(C)n1nc(-c2sc(C(=O)NCc3ccccn3)nc2-c2ccccc2F)ccc1=O [Example 207, 4-(2-Fluorophenyl)-5-(1-isopropyl-6-oxo-1,6-dihydro-3-pyridazinyl)-N-(2-pyridinylmethyl)-1,3-thiazole-2-carboxamide] | 190 to 191
CC(C)n1nc(-c2sc(C(=O)NCc3ccccn3)nc2-c2cccc(F)c2)ccc1=O [Example 208, 4-(3-Fluorophenyl)-5-(1-isopropyl-6-oxo-1,6-dihydro-3-pyridazinyl)-N-(2-pyridinylmethyl)-1,3-thiazole-2-carboxamide] | 188 to 189.5
CC(C)n1nc(-c2sc(C(=O)NCc3ccccn3)nc2-c2ccc(F)cc2)ccc1=O [Example 211, 4-(4-Fluorophenyl)-5-(1-isopropyl-6-oxo-1,6-dihydro-3-pyridazinyl)-N-(2-pyridinylmethyl)-1,3-thiazole-2-carboxamide] | 203.5 to 205
CNC(=O)c1nc(-c2ccccc2)c(-c2ccc(=O)n(C(C)C)n2)s1 [Example 212, 5-(1-isopropyl-6-oxo-1,6-dihydro-3-pyridazinyl)-N-methyl-4-phenyl-1,3-thiazole-2-carboxamide] | 165 to 167.5
CC(C)n1nc(-c2sc(C(=O)N(C)C)nc2-c2ccccc2)ccc1=O [Example 213, 5-(1-isopropyl-6-oxo-1,6-dihydro-3-pyridazinyl)-N,N-dimethyl-4-phenyl-1,3-thiazole-2-carboxamide] | 141 to 144
CCCCNC(=O)c1nc(-c2ccccc2)c(-c2ccc(=O)n(C(C)C)n2)s1 [Example 215, N-butyl-5-(1-isopropyl-6-oxo-1,6-dihydro-3-pyridazinyl)-4-phenyl-1,3-thiazole-2-carboxamide] | 147.5 to 148.5
CC(=O)NCCNC(=O)c1nc(-c2ccccc2)c(-c2ccc(=O)n(C(C)C)n2)s1 [Example 217, N-[2-(Acetylamino)ethyl]-5-(1-isopropyl-6-oxo-1,6-dihydro-3-pyridazinyl)-4-phenyl-1,3-thiazole-2-carboxamide] | 170 to 171.5
CC(C)n1nc(-c2sc(C(=O)N3CCCCC3)nc2-c2ccccc2)ccc1=O [Example 218, 2-Isopropyl-6-[4-phenyl-2-(1-piperidinylcarbonyl)-1,3-thiazol-5-yl]-3(2H)-pyridazinone] | 111 to 112
CC(=O)N1CCN(C(=O)c2nc(-c3ccccc3)c(-c3ccc(=O)n(C(C)C)n3)s2)CC1 [Example 219, 6-{2-[(4-Acetyl-1-piperazinyl)carbonyl]-4-phenyl-1,3-thiazol-5-yl}-2-isopropyl-3(2H)-pyridazinone] | 78 to 82
CC(C)n1nc(-c2sc(C(=O)NCc3ccccc3)nc2-c2ccccc2)ccc1=O [Example 220, N-Benzyl-5-(1-isopropyl-6-oxo-1,6-dihydro-3-pyridazinyl)-4-phenyl-1,3-thiazole-2-carboxamide] | 186 to 187
Cc1cnc(CNC(=O)c2nc(-c3ccc(F)cc3)c(-c3ccc(=O)n(C(C)C)n3)s2)cn1 [Example 221, 4-(4-Fluorophenyl)-5-(1-isopropyl-6-oxo-1,6-dihydro-3-pyridazinyl)-N-[(5-methyl-2-pyrazinyl)methyl]-1,3-thiazole-2-carboxamide] | 187.5 to 188.5
CC(C)n1nc(-c2sc(C(=O)NCC(N)=O)nc2-c2ccccc2)ccc1=O [Example 222, N-(2-amino-2-oxoethyl)-5-(1-isopropyl-6-oxo-1,6-dihydro-3-pyridazinyl)-4-phenyl-1,3-thiazole-2-carboxamide] | 247.5 to 249
CC(C)n1nc(-c2sc(C(=O)NCCN3CCOCC3)nc2-c2ccccc2)ccc1=O [Example 224, 5-(1-Isopropyl-6-oxo-1,6-dihydro-3-pyridazinyl)-N-[2-(4-morpholinyl)-ethyl]-4-phenyl-1,3-thiazole-2-carboxamide] | 196.5 to 197.5
CC(C)n1nc(-c2sc(C(=O)NC3CCCCC3)nc2-c2ccccc2)ccc1=O [Example 225, N-Cyclohexyl-5-(1-isopropyl-6-oxo-1,6-dihydro-3-pyridazinyl)-4-phenyl-1,3-thiazole-2-carboxamide] | 225 to 226
CC(C)n1nc(-c2sc(C(=O)N3CCCC3)nc2-c2ccccc2)ccc1=O [Example 226, 2-Isopropyl-6-[4-phenyl-2-(1-pyrrolidinylcarbonyl)-1,3-thiazol-5-yl]-3(2H)-pyridazinone] | 169 to 170.5
CC(C)n1nc(-c2sc(C(=O)N3CCOCC3)nc2-c2ccccc2)ccc1=O [Example 227, 2-Isopropyl-6-[2-(4-morpholinylcarbonyl)-4-phenyl-1,3-thiazol-5-yl]-3(2H)-pyridazinone] | 161.5 to 162.5

The next lines start with the values.

melting point [°C] | Structure (SMILES)
221 to 222.5 | O=C(NCc1ccccn1)c1nc(-c2ccccc2)c(-c2ccc(=O)[nH]n2)s1 [Example 200, 5-(6-oxo-1,6-dihydro-3-pyridazinyl)-4-phenyl-N-(2-pyridinylmethyl)-1,3-thiazole-2-carboxamide]
189 to 190.5 | Cn1nc(-c2sc(C(=O)NCc3ccccn3)nc2-c2ccccc2)ccc1=O [Example 201, 5-(1-methyl-6-oxo-1,6-dihydro-3-pyridazinyl)-4-phenyl-N-(2-pyridinylmethyl)-1,3-thiazole-2-carboxamide]
169 to 170.5 | CCn1nc(-c2sc(C(=O)NCc3ccccn3)nc2-c2ccccc2)ccc1=O [Example 202, 5-(1-Ethyl-6-oxo-1,6-dihydro-3-pyridazinyl)-4-phenyl-N-(2-pyridinylmethyl)-1,3-thiazole-2-carboxamide]
134 to 135.5 | CCCn1nc(-c2sc(C(=O)NCc3ccccn3)nc2-c2ccccc2)ccc1=O [Example 203, 5-(6-Oxo-1-propyl-1,6-dihydro-3-pyridazinyl)-4-phenyl-N-(2-pyridinylmethyl)-1,3-thiazole-2-carboxamide]
117 to 118 | C=CCn1nc(-c2sc(C(=O)NCc3ccccn3)nc2-c2ccccc2)ccc1=O [Example 204, 5-(1-Allyl-6-oxo-1,6-dihydro-3-pyridazinyl)-4-phenyl-N-(2-pyridinylmethyl)-1,3-thiazole-2-carboxamide]
172.5 to 173.5 | O=C(NCc1ccccn1)c1nc(-c2ccccc2)c(-c2ccc(=O)n(Cc3ccccc3)n2)s1 [Example 205, 5-(1-Benzyl-6-oxo-1,6-dihydro-3-pyridazinyl)-4-phenyl-N-(2-pyridinylmethyl)-1,3-thiazole-2-carboxamide]
168 to 169.5 | COCCn1nc(-c2sc(C(=O)NCc3ccccn3)nc2-c2ccccc2)ccc1=O [Example 206, 5-[1-(2-Methoxyethyl)-6-oxo-1,6-dihydro-3-pyridazinyl]-4-phenyl-N-(2-pyridinylmethyl)-1,3-thiazole-2-carboxamide]
168 to 169.5 | CC(C)n1nc(-c2sc(C(=O)NCc3ccccn3)nc2-c2cccc(Cl)c2)ccc1=O [Example 209, 4-(3-Chlorophenyl)-5-(1-isopropyl-6-oxo-1,6-dihydro-3-pyridazinyl)-N-(2-pyridinylmethyl)-1,3-thiazole-2-carboxamide]
176.5 to 177.5 | CC(C)n1nc(-c2sc(C(=O)NCc3ccccn3)nc2-c2ccccc2)ccc1=O [Example 210, 5-(1-isopropyl-6-oxo-1,6-dihydro-3-pyridazinyl)-4-phenyl-N-(2-pyridinylmethyl)-1,3-thiazole-2-carboxamide]
